Assay type in all cases: cell-based
In assay [1] the test system is HepG2 hepatocarcinoma cells. The assay is described as follows: Resazurin reduction cytotoxicity assay, HepG2. As to conditions: Homo sapiens, read-out: IC50 values. Here is the method:
(§1) The resazurin reduction assay was performed to assess the cytotoxicity of compounds and doxorubicin as control drug towards various sensitive and drug-resistant cancer cell lines, including the CCRF-CEM and CEM/ADR5000 leukemia, MDA-MB231 breast cancer cells and its resistant subline MDA-MB231/BCRP, HCT116p53^+/+ colon cancer cells and its resistant subline HCT116p53^−/−, U87MG glioblastoma cells and its resistant subline U87MG. ΔEGFR and HepG2 hepatocarcinoma cells and normal AML12 hepatocytes. The assay is based on the reduction of the indicator dye, resazurin, to the highly fluorescent resorufin by viable cells. […] Briefly, adherent cells were detached by treatment with 0.25% trypsin/EDTA (Invitrogen, Darmstadt Germany) and an aliquot of 1 × 10^4 cells was placed in each well of a 96-well cell culture plate (Thermo Scientific, Langenselbold, Germany) in a total volume of 200 μL. Cells were allowed to attach overnight and then were treated with different concentrations of compounds. For suspension cells, aliquots of 2 × 10^4 cells per well were seeded in 96-well-plates in a total volume of 100 μL. The studied compounds were immediately added in varying concentrations in an additional 100 μL of culture medium to obtain a total volume of 200 μL/well. After 72 h, resazurin (Sigma-Aldrich, Schnelldorf, Germany) (20 μL, 0.01% w/v) in distilled H2O was added to each well and the plates were incubated at 37°C for 4 h. Fluorescence was measured on an Infinite M2000 ProTM plate reader (Tecan, Crailsheim, Germany) using an excitation wavelength of 544 nm and an emission wavelength of 590 nm. Each assay was done at least twice with six replicates each. The viability was evaluated based on a comparison with untreated cells. IC50 values represent the compound concentrations required to inhibit 50% of cell proliferation and were calculated from a calibration curve by linear regression using Microsoft Excel.
For orientation: Alamar Blue is a resazurin reagent that responds to reducing activity.

For assay [2], the system named is CEM/ADR5000 leukemia cells. The assay is described as follows: Resazurin reduction cytotoxicity assay, CEM/ADR5000. As to conditions: Homo sapiens, read-out: IC50 values. Here is the method: as §1
The subject of another assay is MDA-MB231/BCRP cells. Briefly: Resazurin reduction cytotoxicity assay, MDA-MB231/BCRP. The note with it: MDA-MB-231/BCRP, 72 h, read-out: IC50 values. Here is the method: as §1
Assay [3] relates to HCT116 (p53-/-) colon cancer cells. Briefly: Resazurin reduction cytotoxicity assay, HCT116 (p53-/-). As to conditions: Homo sapiens, read-out: IC50 values. As for the experimental part: as §1
Assay [4] concerns HCT116 (p53+/+) colon cancer cells. The assay is described as follows: Resazurin reduction cytotoxicity assay, HCT116 (p53+/+). The note with it: Homo sapiens, read-out: IC50 values. Here is the method: as §1
The subject of the next assay is normal AML12 hepatocytes. Briefly: Resazurin reduction cytotoxicity assay, normal AML12 hepatocytes. The note with it: Mus musculus, read-out: IC50 values. Here is the method:
as §1

The subject of another assay is U87MG glioblastoma cells. The assay is described as follows: Resazurin reduction cytotoxicity assay, U87MG. The note with it: Homo sapiens, U-87 MG, 72 h, read-out: IC50 values. Here is the method: as §1
Assay [5] deals with MDA-MB231 breast cancer cells. The assay is described as follows: Resazurin reduction cytotoxicity assay, MDA-MB231. The note with it: Homo sapiens, read-out: IC50 values. As for the experimental part: as §1
The subject of another assay is CCRF-CEM leukemia cells. The assay is described as follows: Resazurin reduction cytotoxicity assay, CCRF-CEM. As to conditions: Homo sapiens, 72 h, read-out: IC50 values. Here is the method: as §1
A further assay concerns U87MG. ΔEGFR cells. The assay is described as follows: Resazurin reduction cytotoxicity assay, U87MG.ΔEGFR. The note with it: Homo sapiens, U-87 MG, 72 h, read-out: IC50 values. Here is the method:
as §1

Assay [6] relates to nine tested cancer cell lines. The assay is described as follows: Resazurin reduction cytotoxicity assay, panel of nine cancer cell lines. As to conditions: all nine cancer cell lines, 72 h, read-out: IC50 values towards all the nine tested cancer cell lines. As for the experimental part:
as §1, with “The studied compounds were immediately added in varying concentrations in an additional 100 μL of culture medium to obtain a total volume of 200 μL/well. After 72 h, resazurin (Sigma-Aldrich, Schnelldorf, Germany) (20 μL, 0.01% w/v) in distilled H2O was added to each well and the plates were incubated at 37°C for 4 h.” left out, “Each assay was done at least twice with six replicates each.” left out, “IC50 values represent the compound concentrations required to inhibit 50% of cell proliferation and were calculated from a calibration curve by linear regression using Microsoft Excel.” left out

[7] abbreviates: HepG2 hepatocarcinoma cells, resazurin assay, 72 h.
Where [8] appears, read: CEM/ADR5000 leukemia (resistant), resazurin assay, 72 h.
Where [9] appears, read: MDA-MB231/BCRP resistant subline, resazurin assay.
Where [10] appears, read: normal AML12 hepatocytes, resazurin assay, 72 h.
Setting [11] is: U87MG glioblastoma cells, resazurin assay.
[12] abbreviates: MDA-MB-231, MDA-MB231 breast cancer cells, resazurin assay, 72 h.
Where [13] appears, read: CCRF-CEM leukemia (sensitive), resazurin assay.
Where [14] appears, read: U87MG. ΔEGFR resistant subline, resazurin assay.

Read-outs that look alike come from different tables or passages of the source.

The IC50 is the point on the concentration scale where inhibition reaches its midpoint.

As for `COc1cc2nc3occc3c(OC)c2cc1OC` [Compound 4, kokusaginine], the concentration for half-maximal inhibition (IC50) in [1] (HepG2, 72 h) is 90.8 ± 8.86 µM; in [2] (ADR5000, 72 h), 44.6 ± 3.92 µM; in the assay with MDA-MB231/BCRP cells it was more than 154 µM; in assay [3] (HCT-116, 72 h), more than 154 µM; in assay [4] (HCT-116, 72 h), 120 ± 13.1 µM; with normal AML12 hepatocytes (AML12, 72 h), more than 154 µM. The IC50 was 70.1 ± 6.4 µM with U87MG glioblastoma cells; 62 ± 7.24 µM in assay [5] (MDA-MB-231, 72 h); 49.8 ± 5.04 µM with CCRF-CEM leukemia cells (CCRF-CEM); more than 154 µM with U87MG. ΔEGFR cells.

Consider `COc1c(O)ccc2c1c[n+](C)c1c3cc4c(cc3ccc21)OCO4` [Compound 2, isofagaridine], for which the IC50 in [1] (HepG2, 72 h) was 26.7 ± 3.15 µM; in assay [2] (ADR5000, 72 h), 20.4 ± 2.16 µM; in the assay on MDA-MB231/BCRP cells, 114 ± 9.82 µM; in [3] (HCT-116, 72 h), more than 120 µM; in [4] (HCT-116, 72 h) it was 87.1 ± 7.55 µM; with normal AML12 hepatocytes (AML12, 72 h), more than 120 µM. Besides, the concentration for half-maximal inhibition (IC50) in the assay on U87MG glioblastoma cells came to 105 ± 9.16 µM; in [5] (MDA-MB-231, 72 h), 41.4 ± 3.44 µM; with CCRF-CEM leukemia cells (CCRF-CEM), 0.3 ± 0.04 µM; in the assay with U87MG. ΔEGFR cells, 115 ± 13.8 µM.

For `COc1cccc2c1C(=O)c1c(O)c3c(c(O)c1C2=O)C[C@@](O)(C(=O)CO)C[C@@H]3O[C@H]1C[C@H](N)[C@H](O)[C@H](C)O1` [Doxorubicin, doxorubicin, reference compound], the concentration for half-maximal inhibition (IC50) is 3.83 ± 0.94 µM in assay [1] (setting [7]); 195 ± 14.3 µM in assay [2] (setting [8]); 7.83 ± 0.47 µM with MDA-MB231/BCRP cells (setting [9]); 4.06 ± 0.07 µM in assay [3] (HCT-116, 72 h); 1.41 ± 0.29 µM in assay [4] (HCT-116, 72 h); more than 73.6 µM in the assay with normal AML12 hepatocytes (setting [10]). In addition, the 50% inhibitory concentration (IC50) worked out at 1.06 ± 0.15 µM in the assay with U87MG glioblastoma cells (setting [11]), 1.1 ± 0.28 µM in assay [5] (setting [12]), 0.2 ± 0.06 µM in the assay with CCRF-CEM leukemia cells (setting [13]) and 6.11 ± 0.57 µM with U87MG. ΔEGFR cells (setting [14]).

With `COc1c(O)ccc2c1C(O)N(C)c1c-2ccc2cc3c(cc12)OCO3` (stereo not drawn) [Compound 1, 1-methoxy-12-methyl-12,13-dihydro-[1,3]dioxolo[4′,5′:4,5]benzo[1,2-c]phenanthridine-2,13-diol], the IC50 was 22.4 ± 1.97 µM in assay [1] (setting [7]); not above 65 µM in [6]; 31.6 ± 3.48 µM in assay [2] (setting [8]); 65 ± 5.37 µM with MDA-MB231/BCRP cells (setting [9]); 62.3 ± 4.41 µM in [3] (HCT-116, HCT116 (p53-/-) resistant subline, resazurin assay, 72 h); 42.5 ± 3.22 µM in [4] (HCT-116, HCT116 (p53+/+) colon cancer cells, resazurin assay, 72 h). Further, the concentration for half-maximal inhibition (IC50) is more than 107 µM in the assay on normal AML12 hepatocytes (setting [10]); 60.6 ± 7.29 µM in the assay with U87MG glioblastoma cells (setting [11]); 30.1 ± 4.12 µM in [5] (setting [12]); 0.24 ± 0.01 µM in the assay on CCRF-CEM leukemia cells (setting [13]); 61.8 ± 4.68 µM in the assay on U87MG. ΔEGFR cells (setting [14]).

As for `COc1c2cc3c(cc2nc2occc12)OCO3` [Compound 3, maculine], the IC50 in assay [1] (HepG2, 72 h) is more than 165 µM; in [2] (ADR5000, 72 h), 63.1 ± 3.75 µM; with MDA-MB231/BCRP cells it was more than 165 µM; in assay [3] (HCT-116, 72 h) it was more than 165 µM; in [4] (HCT-116, 72 h), more than 165 µM; in the assay on normal AML12 hepatocytes (AML12, 72 h), more than 165 µM. For the same compound, the IC50 was more than 165 µM with U87MG glioblastoma cells; more than 165 µM in [5] (MDA-MB-231, 72 h); 89.1 ± 6.22 µM with CCRF-CEM leukemia cells (CCRF-CEM); more than 165 µM with U87MG. ΔEGFR cells.

The values above are taken from publication PMC4207896, “Cytotoxic Benzophenanthridine and Furoquinoline Alkaloids from Zanthoxylum buesgenii (Rutaceae)” (Chemistry Central Journal, 2014).
